In assay [1] the target is T1, p110 delta (Homo sapiens, UniProt O00329).
T1 construct: purchased Upstate Group, Millipore; Dundee, UK
Kind of assay: PI3K isoform inhibition assay (fluorescence polarization), p110 delta. Format: biochemical. Conditions: p110 delta binding IC50, Example 901. On the procedure:
(§1) PI3K enzymatic activity was assayed by measuring the amount of product phosphatidylinositol 3,4,5-phosphate (PIP3) formed from substrate 4,5 phosphatidylinositol 4,5-phosphate (PIP2) using a fluorescence polarization displacement assay. The decrease in fluorescence polarization of a fluorescent PIP3 probe is measured as it is displaced from a PIP3-binding protein GRP-1 detector by PI3K-catalyzed product. Assays were conducted in 384-well black Proxiplates in the presence of 10 mM Tris (pH 7.5), 50 mM NaCl, 4 mM MgCl2, 5% glycerol, 25 μM ATP, 10 μM PIP2 (Echelon Biosciences), 0.05% 3-[(3-cholamidopropyl)dimethylammonio]-1-propanesulfonate, 1 mM dithiothreitol, and 2% DMSO. The kinase reactions were initiated by the addition of 40 ng/mL p110α/p85α, 300 ng/mL p110β/p85α, 40 ng/mL p110γ, or 40 ng/mL p110δ/p85α (Upstate Group, Millipore; Dundee, UK), and 10 μM PIP2 (Echelon Biosciences) to the wells. The reactions were stopped at timepoints that yielded a fixed change in fluorescence polarization consistent with initial rate conditions (typically 30 minutes), by the addition of 12.5 mM EDTA, 100 nM GRP-1 detector, and 5 nM tetramethylrhodamine-labeled PIP3 (TAMRA-PIP3; Echelon Biosciences). After 60 minutes of incubation at room temperature to allow equilibration of labeled and unlabeled PIP3 binding, the parallel and perpendicular components of the fluorescence emissions from each sample were measured at an excitation wavelength of 530 nm and an emission wavelength of 590 nm using an Envision fluorescent plate reader with a rhodamine filter (PerkinElmer Life and Analytical Sciences; Wellesley, Mass.). The assay is capable of detecting 0.1-2.0 μM PIP3 product. The IC50 values were obtained by fitting the dose-dependent inhibition data to a 4-parameter equation using Assay Explorer software (MDL, San Ramon, Calif.). […]
Recombinant PI3K p110 isoforms alpha, beta, and delta may be prepared and purified according to US 2008/0275067 from recombinant PI3K heterodimeric complexes consisting of a p110 catalytic subunit and a p85 regulatory subunit overexpressed using the BAC-TO-BAC® HT baculovirus expression system (GIBCO/BRL), and then purified for use in biochemical assays. The four Class I PI 3-kinases are cloned into baculovirus vectors as follows:
p110 delta: A FLAG™-tagged (Eastman Kodak Co., U.S. Pat. No. 4,703,004; U.S. Pat. No. 4,782,137; U.S. Pat. No. 4,851,341) version of human p110.delta (Chantry et al., J. Biol. Chem. (1997) 272:19236-41) is subcloned using standard recombinant DNA techniques into the BamH1-Xba1 site of the insect cell expression vector pFastbac HTb (Life Technologies, Gaithersburg, Md.), such that the clone is in frame with the His tag of the vector.

For assay [2], the target named is T2, p110 alpha (Homo sapiens, UniProt P42336).
T2 construct: purchased Upstate Group, Millipore; Dundee, UK
The experiment in a line: PI3K isoform inhibition assay (fluorescence polarization), p110 alpha, used for delta/alpha selectivity. Conditions: ratio of biochemical IC50 values. On the procedure: as §1
The same protocol was used to establish IC50 values for p110α (alpha) PI3K binding. […]
(In general: Fluorescence polarisation rises when a labelled molecule tumbles more slowly, as on binding a larger partner.)

Assay [3] concerns production of CD69 by B lymphocytes in human whole blood activated with goat F(ab')2 anti-human IgM. The experiment in a line: CD69 Whole Blood Assay. Conditions: Lymphocyte, anti-IgM stimulated, CD69 positive of CD20 positive cells, 20 hours. Format: cell-based. An excerpt:
There is good evidence that B-cells play a key role in the pathogenesis of autoimmune and/or inflammatory disease. Protein-based therapeutics that deplete B cells such as Rituxan are effective against autoantibody-driven inflammatory diseases such as rheumatoid arthritis (Rastetter et al. (2004) Annu Rev Med 55:477). CD69 is the early activation marker in leukocytes including T cells, thymocytes, B cells, NK cells, neutrophils, and eosinophils. The CD69 human whole blood assay (Example 903) determines the ability of compounds to inhibit the production of CD69 by B lymphocytes in human whole blood activated by crosslinking surface IgM with goat F(ab′)2 anti-human IgM.
Human blood is obtained from healthy volunteers, with the following restrictions: 1 week drug-free, non-smokers. Blood (approximately 20 mls to test 8 compounds) is collected by venipuncture into Vacutainer tubes with sodium heparin.
Solutions of Formula I compounds at 1000 or 2000 μM in PBS (20×), are diluted by three-fold serial dilutions in 10% DMSO in PBS for a nine point dose-response curve. An aliquot of 5.5 μl of each compound is added in duplicate to a 2 ml 96-well plate; 5.5 μl of 10% DMSO in PBS is added as control and no-stimulus wells. Human whole blood-HWB (100 μl) is added to each well. After mixing the plates are incubated at 37° C., 5% CO2, 100% humidity for 30 minutes. Goat F(ab′)2 anti-human IgM (10 μl of a 500 μg/ml solution, 50 μg/ml final) is added to each well (except the no-stimulus wells) with mixing and the plates are incubated for an additional 20 hours. At the end of the 20 hour incubation, samples are incubated with florescent labeled antibodies for 30 minutes, at 37° C., 5% CO2, 100% humidity. Include induced control, unstained and single stains for compensation adjustments and initial voltage settings. Samples are then lysed with Pharmingen Lyse according to the manufacturer's instructions. Samples are then transferred to a 96 well plate suitable to be run on the AMS 96 well system on the BD Calibur FACs machine. Data acquired and Mean Fluorescence Intensity values were obtained using Cell Quest Software. Results are initially analyzed by FACS analysis software (Flow Jo). […] The IC50 values are calculated by ActivityBase using Xlfit version 3, equation 201.

SMILES strings stand for the structures.

T1 sequence (O00329 whole entry): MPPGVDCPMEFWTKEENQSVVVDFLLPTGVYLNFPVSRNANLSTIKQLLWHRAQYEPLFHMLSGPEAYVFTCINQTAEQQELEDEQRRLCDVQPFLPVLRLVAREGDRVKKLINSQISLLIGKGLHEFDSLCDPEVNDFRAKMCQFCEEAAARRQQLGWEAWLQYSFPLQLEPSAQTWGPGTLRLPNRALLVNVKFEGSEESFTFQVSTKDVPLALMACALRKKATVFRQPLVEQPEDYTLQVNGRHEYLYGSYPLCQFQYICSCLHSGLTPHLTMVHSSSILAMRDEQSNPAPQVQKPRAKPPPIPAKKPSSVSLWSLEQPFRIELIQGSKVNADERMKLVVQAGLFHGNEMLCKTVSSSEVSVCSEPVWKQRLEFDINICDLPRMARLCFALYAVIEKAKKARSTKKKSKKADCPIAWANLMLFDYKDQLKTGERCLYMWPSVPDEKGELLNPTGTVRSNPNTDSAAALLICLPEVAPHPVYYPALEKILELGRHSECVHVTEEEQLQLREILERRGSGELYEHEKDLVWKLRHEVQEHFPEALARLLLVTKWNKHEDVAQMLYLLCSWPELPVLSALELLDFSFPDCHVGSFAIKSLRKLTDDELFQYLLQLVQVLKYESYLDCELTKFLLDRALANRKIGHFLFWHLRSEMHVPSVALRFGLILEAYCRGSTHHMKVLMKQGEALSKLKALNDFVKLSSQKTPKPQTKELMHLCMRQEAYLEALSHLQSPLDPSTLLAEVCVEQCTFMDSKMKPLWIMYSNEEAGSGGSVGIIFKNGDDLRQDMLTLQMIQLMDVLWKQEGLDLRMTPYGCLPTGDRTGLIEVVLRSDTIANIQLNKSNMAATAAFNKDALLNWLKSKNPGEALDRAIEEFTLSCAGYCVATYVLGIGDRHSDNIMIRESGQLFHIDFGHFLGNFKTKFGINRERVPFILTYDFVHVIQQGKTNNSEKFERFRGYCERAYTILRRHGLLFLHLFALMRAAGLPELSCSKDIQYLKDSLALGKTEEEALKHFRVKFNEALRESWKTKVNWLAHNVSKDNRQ
T1 sequence (P27986 whole entry partner): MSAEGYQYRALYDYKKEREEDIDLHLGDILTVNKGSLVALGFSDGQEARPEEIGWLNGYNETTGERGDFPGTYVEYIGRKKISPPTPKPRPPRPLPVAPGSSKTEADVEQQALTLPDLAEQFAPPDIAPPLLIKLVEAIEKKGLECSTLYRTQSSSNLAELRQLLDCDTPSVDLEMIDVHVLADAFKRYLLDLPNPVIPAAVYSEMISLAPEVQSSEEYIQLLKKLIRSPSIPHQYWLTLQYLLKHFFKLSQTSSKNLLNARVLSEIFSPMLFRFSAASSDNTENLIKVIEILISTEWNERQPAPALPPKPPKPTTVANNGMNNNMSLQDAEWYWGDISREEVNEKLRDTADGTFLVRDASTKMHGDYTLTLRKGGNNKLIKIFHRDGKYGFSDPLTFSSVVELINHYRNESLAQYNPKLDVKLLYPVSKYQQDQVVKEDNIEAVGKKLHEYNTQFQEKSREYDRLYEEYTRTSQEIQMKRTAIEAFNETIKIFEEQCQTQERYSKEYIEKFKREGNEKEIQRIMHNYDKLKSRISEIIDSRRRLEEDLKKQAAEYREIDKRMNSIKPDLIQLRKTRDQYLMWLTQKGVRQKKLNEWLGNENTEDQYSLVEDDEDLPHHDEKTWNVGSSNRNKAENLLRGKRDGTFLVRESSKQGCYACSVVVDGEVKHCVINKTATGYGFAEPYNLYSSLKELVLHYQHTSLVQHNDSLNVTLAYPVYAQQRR
T2 sequence (P42336 whole entry): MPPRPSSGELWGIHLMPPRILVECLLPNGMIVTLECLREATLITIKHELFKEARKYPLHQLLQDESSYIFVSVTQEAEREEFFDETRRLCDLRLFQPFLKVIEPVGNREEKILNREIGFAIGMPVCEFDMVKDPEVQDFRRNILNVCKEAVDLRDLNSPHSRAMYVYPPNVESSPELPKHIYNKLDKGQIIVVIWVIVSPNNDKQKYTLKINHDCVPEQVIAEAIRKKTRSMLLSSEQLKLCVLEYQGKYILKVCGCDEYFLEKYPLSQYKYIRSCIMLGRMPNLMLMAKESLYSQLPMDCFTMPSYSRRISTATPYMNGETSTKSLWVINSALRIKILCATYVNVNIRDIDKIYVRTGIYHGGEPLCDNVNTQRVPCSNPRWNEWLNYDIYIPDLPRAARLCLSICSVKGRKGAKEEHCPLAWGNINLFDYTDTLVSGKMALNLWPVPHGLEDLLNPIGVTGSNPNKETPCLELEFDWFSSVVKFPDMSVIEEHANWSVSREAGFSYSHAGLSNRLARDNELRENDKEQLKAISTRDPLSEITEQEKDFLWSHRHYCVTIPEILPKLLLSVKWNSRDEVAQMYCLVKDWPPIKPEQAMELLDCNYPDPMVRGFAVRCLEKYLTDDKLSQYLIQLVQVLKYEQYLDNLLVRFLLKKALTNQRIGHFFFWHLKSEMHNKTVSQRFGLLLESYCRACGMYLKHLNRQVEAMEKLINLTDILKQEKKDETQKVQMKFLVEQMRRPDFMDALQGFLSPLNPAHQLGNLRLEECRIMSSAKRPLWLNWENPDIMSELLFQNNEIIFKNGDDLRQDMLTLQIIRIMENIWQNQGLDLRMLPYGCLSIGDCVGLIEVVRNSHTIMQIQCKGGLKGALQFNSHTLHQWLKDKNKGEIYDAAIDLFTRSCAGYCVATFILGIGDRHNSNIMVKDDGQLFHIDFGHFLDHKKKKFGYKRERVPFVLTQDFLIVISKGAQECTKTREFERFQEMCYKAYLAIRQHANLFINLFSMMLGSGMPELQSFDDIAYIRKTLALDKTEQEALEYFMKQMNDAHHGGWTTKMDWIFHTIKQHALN
T2 sequence (P27986 whole entry partner): as the sequence (P27986 whole entry partner) above

Consider `CN(C)C1CCN(Cc2cc3nc(-n4ccc5cc(O)ccc54)nc(N4CCOCC4)c3s2)CC1` [Compound 132, 1-(6-((4-(dimethylamino)piperidin-1-yl)methyl)-4-morpholinothieno[3,2-d]pyrimidin-2-yl)-1H-indol-5-ol], for which, in assay [1], the IC50 (commonly the concentration that gives 50% inhibition) worked out at 22 nM. Further, in assay [2], the “IC50 p110 alpha/IC50 p110 delta” value is 37.
On the same counts, the results for `CN(C)C1CCN(Cc2cc3nc(-n4ccc5ccccc54)nc(N4CCOCC4)c3s2)CC1` [Compound 103, 1-((2-(1H-indol-1-yl)-4-morpholinothieno[3,2-d]pyrimidin-6-yl)methyl)-N,N-dimethylpiperidin-4-amine] are 10.4 nM and 54.
For `CN(C)[C@@H]1CCN(Cc2nc3c(N4CCOCC4)nc(-c4c[nH]c5ccccc45)nc3n2C)C[C@@H]1F` [Compound 122, (3S,4R)-1-((2-(1H-indol-3-yl)-9-methyl-6-morpholino-9H-purin-8-yl)methyl)-3-fluoro-N,N-dimethylpiperidin-4-amine], the concentration for half-maximal inhibition (IC50) in assay [1] stood at 7.5 nM; in assay [3], 188 nM. The “IC50 p110 alpha/IC50 p110 delta” value in assay [2] is 96.
As to `Cc1cc2cc(F)ccc2n1-c1nc(N2CCOCC2)c2sc(CN3CCC(N(C)C)CC3)cc2n1` [Compound 119, 1-((2-(5-fluoro-2-methyl-1H-indol-1-yl)-4-morpholinothieno[3,2-d]pyrimidin-6-yl)methyl)-N,N-dimethylpiperidin-4-amine], the IC50 in assay [1] was 23.6 nM; in assay [3] it was 950 nM. Further, the “IC50 p110 alpha/IC50 p110 delta” value in assay [2] is listed as 68.
As for `CN(C)C1CCN(Cc2cc3nc(-c4c[nH]c5ccc(F)cc45)nc(N4CCOCC4)c3s2)CC1` [Compound 113, 1-((2-(5-fluoro-1H-indol-3-yl)-4-morpholinothieno[3,2-d]pyrimidin-6-yl)methyl)-N,N-dimethylpiperidin-4-amine], in assay [1], the IC50 worked out at 102 nM. In addition, the “IC50 p110 alpha/IC50 p110 delta” value in assay [2] came to 13.
With `Cn1c(CN2CCC(C(C)(C)O)CC2)nc2c(N3CCOCC3)nc(-c3c[nH]c4cc(F)ccc34)nc21` [Compound 124, 2-(1-((2-(6-fluoro-1H-indol-3-yl)-9-methyl-6-morpholino-9H-purin-8-yl)methyl)piperidin-4-yl)propan-2-ol], the IC50 in assay [1] is 616 nM. The “IC50 p110 alpha/IC50 p110 delta” value in assay [2] is recorded as over 160.
Taken in the same sequence, the figures for `CC(C)(C(N)=O)N1CCN(Cc2cc3nc(-c4c(C#N)[nH]c5ccccc45)nc(N4CCOCC4)c3s2)CC1` [Compound 129, 2-(4-((2-(2-cyano-1H-indol-3-yl)-4-morpholinothieno[3,2-d]pyrimidin-6-yl)methyl)piperazin-1-yl)-2-methylpropanamide] were 3.4 nM and 238.
Consider `CN(C)C1CCN(Cc2cc3nc(-c4c[nH]c5ccccc45)nc(N4CCOCC4)c3s2)CC1` [Compound 101, 1-((2-(1H-indol-3-yl)-4-morpholinothieno[3,2-d]pyrimidin-6-yl)methyl)-N,N-dimethylpiperidin-4-amine], for which the “IC50 p110 alpha/IC50 p110 delta” value in assay [2] was 101. In assay [3], this molecule had an IC50 of 17.3 nM.
The molecule `CC(C)(OCCN1CCCC1)c1cc2nc(-c3c[nH]c4ccccc34)nc(N3CCOCC3)c2s1` [Compound 125] showed a half-maximal inhibitory concentration (IC50) in assay [1] of 8.4 nM. Also, the “IC50 p110 alpha/IC50 p110 delta” value in assay [2] was found to be 63.
For the molecule `c1ccc2c(-c3nc(N4CCOCC4)c4nc(CN5CC(N6CCOCC6)C5)sc4n3)c[nH]c2c1` [Compound 117, 4-(5-(1H-indol-3-yl)-2-((3-morpholinoazetidin-1-yl)methyl)thiazolo[5,4-d]pyrimidin-7-yl)morpholine], the values for the IC50 in assay [1] and in assay [3] were 2 nM and 84 nM, respectively. The “IC50 p110 alpha/IC50 p110 delta” value in assay [2] was 198.
`O=C1COC2(CCN(Cc3cc4nc(-c5c[nH]c6ccccc56)nc(N5CCOCC5)c4s3)CC2)CN1` [Compound 116, 9-((2-(1H-indol-3-yl)-4-morpholinothieno[3,2-d]pyrimidin-6-yl)methyl)-1-oxa-4,9-diazaspiro[5.5]undecan-3-one] gave an IC50 in assay [1] of 55 nM. The “IC50 p110 alpha/IC50 p110 delta” value in assay [2] is given as 25.
On to `Cn1c(CN2CCC(C(C)(C)O)CC2)nc2c(N3CCOCC3)nc(-n3c(C#N)cc4ccccc43)nc21` [Compound 136, 1-(8-((4-(2-hydroxypropan-2-yl)piperidin-1-yl)methyl)-9-methyl-6-morpholino-9H-purin-2-yl)-1H-indole-2-carbonitrile], for which the IC50 in assay [1] came to 20 nM; in assay [3], 4600 nM. The “IC50 p110 alpha/IC50 p110 delta” value in assay [2] is given as 265.
For the molecule `CN(C)C1CCN(Cc2cc3nc(N4CCc5ccccc54)nc(N4CCOCC4)c3s2)CC1` [Compound 102, 1-((2-(indolin-1-yl)-4-morpholinothieno[3,2-d]pyrimidin-6-yl)methyl)-N,N-dimethylpiperidin-4-amine], the concentration for half-maximal inhibition (IC50) in assay [1] stood at 20.8 nM; in assay [3], 1700 nM. Further, the “IC50 p110 alpha/IC50 p110 delta” value in assay [2] was found to be 34.
Turning to `COCc1cc2ccccc2n1-c1nc(N2CCOCC2)c2nc(CN3CCC(C(C)(C)O)CC3)n(C)c2n1` [Compound 127, 2-(1-((2-(2-(methoxymethyl)-1H-indol-1-yl)-9-methyl-6-morpholino-9H-purin-8-yl)methyl)piperidin-4-yl)propan-2-ol], the figures for the IC50 in assay [1] and in assay [3] were 29 nM and 891 nM, respectively. In addition, the “IC50 p110 alpha/IC50 p110 delta” value in assay [2] is 186.
Regarding `Cn1c(CN2CCC(N3CCOCC3)CC2)nc2c(N3CCOCC3)nc(-c3c[nH]c4ccccc34)nc21` [Compound 104, 4-(1-((2-(1H-indol-3-yl)-9-methyl-6-morpholino-9H-purin-8-yl)methyl)piperidin-4-yl)morpholine], the IC50 in assay [1] is 47.7 nM; in assay [3] it was 623 nM. Further, the “IC50 p110 alpha/IC50 p110 delta” value in assay [2] worked out at 105.

Values taken from US8158625B2, “Bicyclic indole-pyrimidine PI3K inhibitor compounds selective for P110 delta, and methods of use” (Genentech, Inc., priority 2009, dated 2012).
